Values quoted from earlier work, collected in patent publication US20060136023A1 (priority 2004, published 2006).

Key:
shivering threshold = settings: in vivo
clots [1] = settings: clots treated with plasminogen (2 mg) and SK (100 IU) in 15 ml PBS; clot temperature raised from 24° C. to 37° C.
Plasminogen [2] = molecular target: T1, Plasminogen (Homo sapiens, UniProt P00747)
clots [3] = settings: tPA 0.3, 1.0 and 3.0 μg/ml; incubated from 24° C. to 40° C.
Plasminogen [4] = molecular target: T1, Plasminogen; settings: clots treated with UK at 4° C.; heating to 28° C.

T1 sequence (P00747 20-810 limits assumed, species assumed): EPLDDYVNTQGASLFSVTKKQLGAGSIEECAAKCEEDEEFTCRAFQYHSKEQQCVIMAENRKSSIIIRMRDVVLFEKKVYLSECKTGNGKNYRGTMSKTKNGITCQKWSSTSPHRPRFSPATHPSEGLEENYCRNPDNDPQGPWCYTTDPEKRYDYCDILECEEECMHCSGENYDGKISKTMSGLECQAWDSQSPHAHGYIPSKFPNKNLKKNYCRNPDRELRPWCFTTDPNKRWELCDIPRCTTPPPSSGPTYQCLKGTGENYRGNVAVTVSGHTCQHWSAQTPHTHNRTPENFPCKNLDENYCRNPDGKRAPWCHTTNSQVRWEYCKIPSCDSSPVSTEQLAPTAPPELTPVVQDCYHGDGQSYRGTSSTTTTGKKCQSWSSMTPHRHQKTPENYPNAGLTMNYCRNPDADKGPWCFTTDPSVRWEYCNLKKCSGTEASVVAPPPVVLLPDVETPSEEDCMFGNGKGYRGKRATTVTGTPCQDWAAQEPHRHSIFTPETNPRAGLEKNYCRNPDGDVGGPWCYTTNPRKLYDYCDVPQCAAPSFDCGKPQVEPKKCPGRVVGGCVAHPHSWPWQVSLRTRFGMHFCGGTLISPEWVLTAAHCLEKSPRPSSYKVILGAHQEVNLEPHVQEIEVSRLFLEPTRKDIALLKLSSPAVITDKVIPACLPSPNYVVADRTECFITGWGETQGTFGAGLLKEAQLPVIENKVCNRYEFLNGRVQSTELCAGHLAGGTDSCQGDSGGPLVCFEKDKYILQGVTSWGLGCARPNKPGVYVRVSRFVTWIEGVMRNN

Compound: CN1CC[C@]23c4c5ccc(O)c4O[C@H]2[C@@H](O)C=C[C@H]3[C@H]1C5 [morphine]
- antishivering activity (shivering threshold): less or no antishivering activity

Compound: CN1CCOC(c2ccccc2)c2ccccc2C1 (racemic) [nefopam]
- antishivering activity (shivering threshold): prevent post-operative shivering

Compound: streptokinase [SK]
- fibrinolytic activity (clots [1]): heating enhanced the fibrinolytic activity

Compound: CCC(=O)O[C@@]1(c2ccccc2)CCN(C)C[C@@H]1C [beta prodine]
- affinity for the opiate receptor, one enantiomer versus the other (opiate receptor): (+) isomer has much greater affinity

Compound: tissue plasminogen activator [tPA]
- fibrinolytic activity (Plasminogen [2]; 2.5 μg/ml tPA, cooling from normal body temperature to a hypothermic temperature): increased fibrinolytic activity
- Plasminogen activation (Plasminogen [2]; clots treated with 2.5 μg/ml tPA, incubated at 37, 25, 10, 0 and −8° C.): relatively high at low temperatures
- amount of clot lysis (clots [3]): correlated with temperature at all concentrations

Compound: Oc1ccc2c3c1O[C@H]1[C@@H](O)CC[C@@]4(O)[C@@H](C2)N(CC2CCC2)CC[C@]314 [nalbuphine]
- antishivering activity (shivering threshold): less or no antishivering activity

Compound: CCC(=O)OC1(c2ccccc2)CCN(C)CC1C (racemic) [alpha prodine, Alpha prodine]
- affinity for the opiate receptor, one enantiomer versus the other (opiate receptor): (+) isomer has much greater affinity

Compound: CCOC(=O)C1(c2ccccc2)CCN(C)CC1 [Meperidine]
- decrease of shivering threshold relative to vasoconstriction threshold (shivering threshold): twice as much
- effect on the gain and maximum intensity of shivering (shivering threshold): does not have much effect

Compound: CC(C)=CCN1CCC2(C)c3cc(O)ccc3CC1C2C (stereo not shown) [pentazocine]
- antishivering activity (shivering threshold): less or no antishivering activity

Compound: urokinase [UK]
- conversion of plasminogen to plasmin (fibrinolytic activity) (Plasminogen [4]): complete conversion of all plasminogen to plasmin
